# Reference: the supplement of paper PMC10307832
# Tests used:
# Experiment in all cases: relative viability (nuclei count vs DMSO), 5 days (fraction); higher = more cells survive
# [1] = tested on: HCC-366
# Method in brief: (§1)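 A single step with final 0.05% Triton X-100, 1% formaldehyde and 1 ug/ml Hoechst fixed the cells and stained nuclei 5 days after treatment. Lung cancer cell lines in 1536-well plates had been treated by pin tool the day after seeding with one drug alone or a fixed anchor-drug dose plus five library-drug doses (not always all listed) in √10 steps, and nuclei were counted on 4× images. Relative viability is the ratio of nuclei in treated wells to nuclei in vehicle wells, taken as the median of duplicate plates.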
# [2] = tested on: NCI-H1975
# Method in brief: as §1
# [3] = tested on: NCI-H1734
# Method in brief: as §1
# [4] = tested on: LOU-NH91
# Method in brief: as §1
# [5] = tested on: NCI-H2085
# Method in brief: as §1
# [6] = tested on: NCI-H1355
# Method in brief: as §1
# [7] = tested on: CAL-12T
# Method in brief: as §1
# [8] = tested on: HCC-44
# Method in brief: as §1
# [9] = tested on: NCI-H1395
# Method in brief: as §1
# [10] = tested on: NCI-H1650
# Method in brief: as §1
# [11] = tested on: LU99A
# Method in brief: as §1
# [12] = tested on: NCI-H1437
# Method in brief: as §1
# [13] = tested on: NCI-H1755
# Method in brief: as §1
# [14] = tested on: NCI-H838
# Method in brief: as §1
# [15] = tested on: BEN
# Method in brief: as §1
# [16] = tested on: NCI-H2023
# Method in brief: as §1
# [17] = tested on: NCI-H1563
# Method in brief: as §1
# [18] = tested on: EKVX
# Method in brief: as §1
# [19] = tested on: NCI-H358
# Method in brief: as §1
# [20] = tested on: NCI-H1651
# Method in brief: as §1
# [21] = tested on: NCI-H441
# Method in brief: as §1
# [22] = tested on: NCI-H2342
# Method in brief: as §1
# [23] = tested on: NCI-H460
# Method in brief: as §1
smiles,measurement,setting,value
CC1(C)CCC(c2ccc(Cl)cc2)=C(CN2CCN(c3ccc(C(=O)NS(=O)(=O)c4ccc(N[C@H](CCN5CCOCC5)CSc5ccccc5)c(S(=O)(=O)C(F)(F)F)c4)cc3)CC2)C1 [Navitoclax] + N=C(N)NC(=N)NCCc1ccccc1 [Phenformin] (partner 250 µM),relative viability,[1]; first compound 0.005 µM,0.708
same,relative viability,[1]; first compound 0.01581 µM,0.616
same,relative viability,[1]; first compound 0.1581 µM,0.619
same,relative viability,[1]; first compound 0.5 µM,0.588
same,relative viability,[2]; first compound 0.005 µM,0.427
same,relative viability,[2]; first compound 0.01581 µM,0.428
same,relative viability,[2]; first compound 0.05 µM,0.454
same,relative viability,[2]; first compound 0.1581 µM,0.414
same,relative viability,[2]; first compound 0.5 µM,0.42
same,relative viability,[3]; first compound 0.005 µM,0.367
same,relative viability,[3]; first compound 0.01581 µM,0.461
same,relative viability,[3]; first compound 0.1581 µM,0.371
same,relative viability,[3]; first compound 0.5 µM,0.341
same,relative viability,[4]; first compound 0.005 µM,0.8
same,relative viability,[4]; first compound 0.01581 µM,0.693
same,relative viability,[4]; first compound 0.05 µM,0.636
same,relative viability,[4]; first compound 0.1581 µM,0.652
same,relative viability,[4]; first compound 0.5 µM,0.427
same,relative viability,[5]; first compound 0.005 µM,0.732
same,relative viability,[5]; first compound 0.01581 µM,0.847
same,relative viability,[5]; first compound 0.05 µM,0.593
same,relative viability,[5]; first compound 0.1581 µM,0.746
same,relative viability,[5]; first compound 0.5 µM,0.786
same,relative viability,[6]; first compound 0.005 µM,0.48
same,relative viability,[6]; first compound 0.01581 µM,0.467
same,relative viability,[6]; first compound 0.05 µM,0.388
same,relative viability,[6]; first compound 0.1581 µM,0.436
same,relative viability,[6]; first compound 0.5 µM,0.463
same,relative viability,[7]; first compound 0.005 µM,0.527
same,relative viability,[7]; first compound 0.01581 µM,0.655
same,relative viability,[7]; first compound 0.05 µM,0.6
same,relative viability,[7]; first compound 0.1581 µM,0.503
same,relative viability,[7]; first compound 0.5 µM,0.582
same,relative viability,[8]; first compound 0.005 µM,0.173
same,relative viability,[8]; first compound 0.01581 µM,0.184
same,relative viability,[8]; first compound 0.05 µM,0.185
same,relative viability,[8]; first compound 0.1581 µM,0.131
same,relative viability,[8]; first compound 0.5 µM,0.197
same,relative viability,[9]; first compound 0.005 µM,0.461
same,relative viability,[9]; first compound 0.01581 µM,0.501
same,relative viability,[9]; first compound 0.05 µM,0.451
same,relative viability,[9]; first compound 0.1581 µM,0.455
same,relative viability,[9]; first compound 0.5 µM,0.497
same,relative viability,[10]; first compound 0.005 µM,0.358
same,relative viability,[10]; first compound 0.01581 µM,0.606
same,relative viability,[10]; first compound 0.05 µM,0.404
same,relative viability,[10]; first compound 0.1581 µM,0.36
same,relative viability,[10]; first compound 0.5 µM,0.313
same,relative viability,[11]; first compound 0.005 µM,0.878
same,relative viability,[11]; first compound 0.01581 µM,0.993
same,relative viability,[11]; first compound 0.05 µM,0.726
same,relative viability,[11]; first compound 0.1581 µM,0.829
same,relative viability,[11]; first compound 0.5 µM,0.928
same,relative viability,[12]; first compound 0.005 µM,0.269
same,relative viability,[12]; first compound 0.01581 µM,0.333
same,relative viability,[12]; first compound 0.05 µM,0.334
same,relative viability,[12]; first compound 0.1581 µM,0.314
same,relative viability,[12]; first compound 0.5 µM,0.41
same,relative viability,[13]; first compound 0.005 µM,0.639
same,relative viability,[13]; first compound 0.01581 µM,0.659
same,relative viability,[13]; first compound 0.05 µM,0.575
same,relative viability,[13]; first compound 0.1581 µM,0.521
same,relative viability,[13]; first compound 0.5 µM,0.43
same,relative viability,[14]; first compound 0.005 µM,0.529
same,relative viability,[14]; first compound 0.01581 µM,0.735
same,relative viability,[14]; first compound 0.05 µM,0.757
same,relative viability,[14]; first compound 0.1581 µM,0.749
same,relative viability,[14]; first compound 0.5 µM,0.664
same,relative viability,[15]; first compound 0.005 µM,0.246
same,relative viability,[15]; first compound 0.01581 µM,0.265
same,relative viability,[15]; first compound 0.05 µM,0.248
same,relative viability,[15]; first compound 0.1581 µM,0.294
same,relative viability,[15]; first compound 0.5 µM,0.232
same,relative viability,[16]; first compound 0.005 µM,0.432
same,relative viability,[16]; first compound 0.01581 µM,0.447
same,relative viability,[16]; first compound 0.05 µM,0.382
same,relative viability,[16]; first compound 0.1581 µM,0.425
same,relative viability,[16]; first compound 0.5 µM,0.428
same,relative viability,[17]; first compound 0.005 µM,0.685
same,relative viability,[17]; first compound 0.01581 µM,0.723
same,relative viability,[17]; first compound 0.05 µM,0.611
same,relative viability,[17]; first compound 0.1581 µM,0.682
same,relative viability,[17]; first compound 0.5 µM,0.665
same,relative viability,[18]; first compound 0.005 µM,0.262
same,relative viability,[18]; first compound 0.01581 µM,0.238
same,relative viability,[18]; first compound 0.05 µM,0.226
same,relative viability,[18]; first compound 0.1581 µM,0.239
same,relative viability,[18]; first compound 0.5 µM,0.235
same,relative viability,[19]; first compound 0.005 µM,0.362
same,relative viability,[19]; first compound 0.01581 µM,0.376
same,relative viability,[19]; first compound 0.05 µM,0.357
same,relative viability,[19]; first compound 0.1581 µM,0.343
same,relative viability,[19]; first compound 0.5 µM,0.424
same,relative viability,[20]; first compound 0.005 µM,0.3
same,relative viability,[20]; first compound 0.01581 µM,0.3
same,relative viability,[20]; first compound 0.05 µM,0.298
same,relative viability,[20]; first compound 0.1581 µM,0.353
same,relative viability,[20]; first compound 0.5 µM,0.295
same,relative viability,[21]; first compound 0.005 µM,0.919
same,relative viability,[21]; first compound 0.01581 µM,1.14
same,relative viability,[21]; first compound 0.05 µM,0.846
same,relative viability,[21]; first compound 0.1581 µM,0.851
same,relative viability,[21]; first compound 0.5 µM,0.818
same,relative viability,[22]; first compound 0.005 µM,0.602
same,relative viability,[22]; first compound 0.01581 µM,0.627
same,relative viability,[22]; first compound 0.05 µM,0.486
same,relative viability,[22]; first compound 0.1581 µM,0.599
same,relative viability,[22]; first compound 0.5 µM,0.624
same,relative viability,[23]; first compound 0.005 µM,0.509
same,relative viability,[23]; first compound 0.01581 µM,0.512
same,relative viability,[23]; first compound 0.05 µM,0.529
same,relative viability,[23]; first compound 0.1581 µM,0.522
same,relative viability,[23]; first compound 0.5 µM,0.515
